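Assay format: 96-well plates, 48-hour exposure. TGI is the concentration that stops growth completely.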
Experiments:
Assay in all cases: NCI tumour cell line growth inhibition, 48 h
CAKI-1 renal = system: CAKI-1 renal
OVCAR-3 ovarian = system: OVCAR-3 ovarian
SN12C renal = system: SN12C renal
M14 melanoma = system: M14 melanoma
HOP-92 NSCLC = system: HOP-92 NSCLC
RXF 393 renal = system: RXF 393 renal
NCI-H226 lung = system: NCI-H226 lung
SK-MEL-28 melanoma = system: SK-MEL-28 melanoma
U251 CNS = system: U251 CNS
EKVX NSCLC = system: EKVX NSCLC
SF-268 CNS = system: SF-268 CNS
HCC-2998 colon = system: HCC-2998 colon
MOLT-4 leukemia = system: MOLT-4 leukemia
MALME-3M melanoma = system: MALME-3M melanoma
RPMI-8226 leukemia = system: RPMI-8226 leukemia
HCT-15 colon = system: HCT-15 colon
SR leukemia = system: SR leukemia
DMS 273 small cell lung = system: DMS 273 small cell lung
DMS 114 small cell lung = system: DMS 114 small cell lung
NCI-H460 lung = system: NCI-H460 lung
SK-MEL-5 melanoma = system: SK-MEL-5 melanoma
A498 renal = system: A498 renal
OVCAR-8 ovarian = system: OVCAR-8 ovarian
SW-620 colon = system: SW-620 colon
ACHN renal = system: ACHN renal
UACC-62 melanoma = system: UACC-62 melanoma
IGROV1 ovarian = system: IGROV1 ovarian
CCRF-CEM leukemia = system: CCRF-CEM leukemia
LOX IMVI melanoma = system: LOX IMVI melanoma
DLD-1 colon = system: DLD-1 colon
SNB-75 CNS = system: SNB-75 CNS
UACC-257 melanoma = system: UACC-257 melanoma
OVCAR-4 ovarian = system: OVCAR-4 ovarian
K-562 leukemia = system: K-562 leukemia
NCI-H23 lung = system: NCI-H23 lung
TK-10 renal = system: TK-10 renal
HCT-116 colon = system: HCT-116 colon
XF 498 CNS = system: XF 498 CNS
UO-31 renal = system: UO-31 renal
LXFL 529 NSCLC = system: LXFL 529 NSCLC
SK-MEL-2 melanoma = system: SK-MEL-2 melanoma
786-0 renal = system: 786-0 renal
SF-539 CNS = system: SF-539 CNS
NCI-H522 lung = system: NCI-H522 lung
SF-295 CNS = system: SF-295 CNS
HL-60(TB) leukemia = system: HL-60(TB) leukemia
KM20L2 colon = system: KM20L2 colon
A549 NSCLC = system: A549 NSCLC
SNB-19 CNS = system: SNB-19 CNS
OVCAR-5 ovarian = system: OVCAR-5 ovarian
HT29 colon = system: HT29 colon
SNB-78 CNS = system: SNB-78 CNS
KM12 colon = system: KM12 colon
COLO 205 colon = system: COLO 205 colon
HOP-62 NSCLC = system: HOP-62 NSCLC
SK-OV-3 ovarian = system: SK-OV-3 ovarian

SMILES: Cc1ccc(NC(=O)CC2C(=O)Nc3ccccc3S2(=O)=O)c(C)c1 (centres undefined)
- TGI (CAKI-1 renal): 35.9 µM
- TGI (OVCAR-3 ovarian): 30.1 µM
- TGI (SN12C renal): 39.3 µM
- TGI (M14 melanoma): 26.2 µM
- TGI (HOP-92 NSCLC): 31 µM
- TGI (RXF 393 renal): 41 µM
- TGI (NCI-H226 lung): 35.9 µM
- TGI (SK-MEL-28 melanoma): 41.1 µM
- TGI (U251 CNS): 25.8 µM
- TGI (EKVX NSCLC): > 100 µM
- TGI (SF-268 CNS): 39.6 µM
- TGI (HCC-2998 colon): 30.5 µM
- TGI (MOLT-4 leukemia): 28.7 µM
- TGI (MALME-3M melanoma): 45.9 µM
- TGI (RPMI-8226 leukemia): 43.4 µM
- TGI (HCT-15 colon): 30.3 µM
- TGI (SR leukemia): 19.1 µM
- TGI (DMS 273 small cell lung): 25.8 µM
- TGI (DMS 114 small cell lung): 39.2 µM
- TGI (NCI-H460 lung): 33.8 µM
- TGI (SK-MEL-5 melanoma): 19.5 µM
- TGI (A498 renal): 31.2 µM
- TGI (OVCAR-8 ovarian): 34.6 µM
- TGI (SW-620 colon): 19.5 µM
- TGI (ACHN renal): 39.1 µM
- TGI (UACC-62 melanoma): 50.5 µM
- TGI (IGROV1 ovarian): 28.8 µM
- TGI (CCRF-CEM leukemia): 43.2 µM
- TGI (LOX IMVI melanoma): 29 µM
- TGI (DLD-1 colon): 43.1 µM
- TGI (SNB-75 CNS): 38.6 µM
- TGI (UACC-257 melanoma): 55 µM
- TGI (OVCAR-4 ovarian): 41.2 µM
- TGI (K-562 leukemia): 29 µM
- TGI (NCI-H23 lung): 37.2 µM
- TGI (TK-10 renal): 55 µM
- TGI (HCT-116 colon): 24.9 µM
- TGI (XF 498 CNS): 34.8 µM
- TGI (UO-31 renal): 39.8 µM
- TGI (LXFL 529 NSCLC): 41 µM
- TGI (SK-MEL-2 melanoma): 73.8 µM
- TGI (786-0 renal): 40.3 µM
- TGI (SF-539 CNS): 30.8 µM
- TGI (NCI-H522 lung): 23.6 µM
- TGI (SF-295 CNS): 50.2 µM
- TGI (HL-60(TB) leukemia): 14 µM
- TGI (KM20L2 colon): 26.9 µM
- TGI (A549 NSCLC): 36.8 µM
- TGI (SNB-19 CNS): 32.6 µM
- TGI (OVCAR-5 ovarian): 46.9 µM
- TGI (HT29 colon): 27.2 µM
- TGI (SNB-78 CNS): 56 µM

SMILES: O=S(=O)(c1cccc(N=C=S)c1)c1cccc(N=C=S)c1
- TGI (KM12 colon): 61.5 µM
- TGI (OVCAR-3 ovarian): 24 µM
- TGI (SN12C renal): 37.7 µM
- TGI (M14 melanoma): 25.6 µM
- TGI (RXF 393 renal): 30 µM
- TGI (SK-MEL-28 melanoma): 33.6 µM
- TGI (U251 CNS): 35.4 µM
- TGI (EKVX NSCLC): > 100 µM
- TGI (SF-268 CNS): 39.8 µM
- TGI (HCC-2998 colon): 46.7 µM
- TGI (MOLT-4 leukemia): 30.6 µM
- TGI (MALME-3M melanoma): 34.9 µM
- TGI (RPMI-8226 leukemia): 83.9 µM
- TGI (HCT-15 colon): 33.8 µM
- TGI (COLO 205 colon): 38.1 µM
- TGI (DMS 273 small cell lung): 40.6 µM
- TGI (DMS 114 small cell lung): 29.6 µM
- TGI (SK-MEL-5 melanoma): 36.3 µM
- TGI (ACHN renal): 34.5 µM
- TGI (UACC-62 melanoma): 36.2 µM
- TGI (IGROV1 ovarian): 34.7 µM
- TGI (LOX IMVI melanoma): 31.6 µM
- TGI (DLD-1 colon): 40.7 µM
- TGI (UACC-257 melanoma): 38.5 µM
- TGI (HOP-62 NSCLC): 26.5 µM
- TGI (K-562 leukemia): > 100 µM
- TGI (NCI-H23 lung): 32.9 µM
- TGI (TK-10 renal): 40 µM
- TGI (HCT-116 colon): 32 µM
- TGI (UO-31 renal): 75.1 µM
- TGI (LXFL 529 NSCLC): 28.5 µM
- TGI (SK-OV-3 ovarian): 37.3 µM
- TGI (SK-MEL-2 melanoma): 33.8 µM
- TGI (786-0 renal): 29.5 µM
- TGI (NCI-H522 lung): 32.8 µM
- TGI (SF-295 CNS): 39.4 µM
- TGI (HL-60(TB) leukemia): 50 µM
- TGI (KM20L2 colon): > 100 µM
- TGI (A549 NSCLC): > 100 µM
- TGI (SNB-19 CNS): > 100 µM
- TGI (OVCAR-5 ovarian): > 100 µM
- TGI (SNB-78 CNS): 63.5 µM

From PubChem BioAssay (NCI)
